According to US20250375474A1, “COMPOSITIONS FOR THE PREVENTION AND TREATMENT OF MOISTURE-ASSOCIATED SKIN DAMAGE” (SCOTIADERM INC., priority 2022, published 2025):

These compounds were tested on incontinence-associated dermatitis (IAD) lesions induced with 5% pancreatin (assay: Incontinence-associated dermatitis (IAD) rabbit model, treatment of induced ear lesions). Details: rabbit ears; 1% clotrimazole, 1% hydrocortisone, 15% zinc oxide applied separately vs combination.
Format: in vivo
Method: A rabbit model of IAD was also investigated. A combination cream (DGBC) was used to assess healing of an animal model of IAD compared with three active components of the cream. Twenty-six IAD lesions were induced and each lesion was treated with the individual components and the combination cream.
Rabbits were purchased from Charles River to be used for these experiments. […] Additionally, the animals' ears were used to maximize the sample size, effectively halving the number of animals required for the project. Twenty-two female rabbits were purchased: 2 for the pilot phase and 18 for phase 2 of the project. The study was conducted, and animals were housed at the AVC Research Facility as per CCAC guidelines. The experimental treatment utilized a therapeutic cream composed of 1.0% hydrocortisone, 1.0% clotrimazole and 15.0% zinc oxide (DGBC).
Induction of IAD. 1.Sedation of rabbit: Midazolam 0.5 mg/kg intramuscularly (IM) plus buprenorphine 0.03 mg/kg IM. Animals were assessed for sedation prior to gauze application. Animals requiring further sedation were sedated with ketamine 5 mg/kg IM. 2.Cleaning of the ear: The skin of both inner ears of each animal were cleaned with a 2×2 gauze saturated with 3 ml isopropyl alcohol and allowed to air dry for 5 minutes before applying the saturated gauze. The animal were held for a period of 5 min to ensure the ear was dry prior to application of IAD induction. 3.Application of gauze with 5% pancreatin to induce IAD: both ears of the animals were irritated as follows: Sterile 2×2 gauze was used as a carrier for the irritant. The gauze was saturated with 3 ml of pancreatin. 4.Wrapping of the ear: Both ears of each animal had gauze with pancreatin applied to the medial surface. […] 5.Monitoring period of 24 h: After 24 hours the bandage and occlusive dressing was removed and the ears assessed for sufficient irritation. […] Rabbits assessed as painful 1 hour after administration of gabapentin were treated with buprenorphine 0.03 mg/kg SC and be reassessed for pain in 1 hour. […]

Structure (SMILES)	effect in treating IAD compared with DGBC therapeutic cream
C[C@]12CCC(=O)C=C1CC[C@@H]1[C@@H]2[C@@H](O)C[C@@]2(C)[C@H]1CC[C@]2(O)C(=O)CO [hydrocortisone, 11β, 17α,21-Trihydroxypregn-4-ene-3,20-dione]	do not produce the same effect
Clc1ccccc1C(c1ccccc1)(c1ccccc1)n1ccnc1 [clotrimazole, Clotrimazole]	do not produce the same effect
[O]=[Zn] [zinc oxide, Zinc oxide]	do not produce the same effect
